Data: article PMC6429275, “Isothiocyanates and Glucosinolates from Sisymbrium officinale (L.) Scop. (“the Singers’ Plant”): Isolation and in Vitro Assays on the Somatosensory and Pain Receptor TRPA1 Channel” (Molecules, 2019)
Several values for one entry are separate records, joined by “and”; a condition that tells them apart may be missing. Equal entries are not always repeated. Where two headings read alike, the source gives them in different places.

What was measured:
rat TRPA1 [1] = molecular target: T1, rat TRPA1 (Rattus norvegicus, UniProt Q6RI86); assay: Antagonist/desensitizing behavior against AITC 100 μM in rTRPA1-HEK-293 cells (5 min pre-incubation); assay type: cell-based
T1 construct: expressed in transfected cells; host or cells: HEK-293 cells, stably transfected
Method: (§1) Compound effects on intracellular Ca^2+ concentration ([Ca^2+]i) were determined using the selective intracellular fluorescent probe Fluo-4. Assays of the rat TRPA1-mediated elevation of intracellular Ca^2+ in transfected HEK-293 cells were performed as described. Briefly, human embryonic kidney (HEK-293) cells (stably transfected with rat TRPA1 or not transfected) were cultured in EMEM + 2 mM Glutamine + 1 % non-essential amino acids (NEAA) + 10 % FBS and maintained at 37 °C with 5 % CO2. On the day of the experiment, the cells were loaded with Fluo-4 AM (4 μM) for 1 h at room temperature, rinsed and resuspended in Tyrode’s solution (145 mM NaCl, 2.5 mM KCl, 1.5 mM CaCl2, 1.2 mM MgCl2, 10 mM d-glucose, and 10 mM HEPES, pH 7.4), and finally transferred to a quartz cuvette of a spectrofluorimeter (Perkin-Elmer LS50B, Perkin Elmer Inc, Buckinghamshire, UK); λEX = 488 nm, λEM = 516 nm) equipped with a PTP-1 Fluorescence Peltier System (PerkinElmer Life and Analytical Sciences, Waltham, MA, USA) under continuous stirring. Cell fluorescence before and after the addition of various concentrations of test compounds was measured, normalizing the effects against the response to ionomycin (4 µM). The values of the effect on [Ca^2+]i in not-transfected HEK-293 cells were used as a baseline and subtracted from the values obtained from transfected cells. Agonist efficacy was expressed as a percentage of the effect on [Ca^2+]i observed with 100 μM allylisothiocyanate (AITC). The potency of the compounds (EC50 values) was determined as the concentration required to produce half-maximal increases in [Ca^2+]i. Antagonist/desensitizing behavior as evaluated against TRPA1 agonist AITC 100 μM by adding the compound directly into the quartz cuvette 5 min before the stimulation of cells with the agonist. IC50 is expressed as the concentration exerting a half-maximal inhibition of an agonist effect, taking as 100% the effect on [Ca^2+]i exerted by the agonist alone. Dose–response curves are fitted by a sigmoidal regression with a variable slope. Curve fitting and parameter estimation were performed with a GraphPad Prism (GraphPad Software Inc., San Diego, CA). Three independent experiments were done for each determination; all determinations were performed at least in triplicate. The time-course spectra showing the increase of intracellular Ca^2+ upon application of the compounds are available in Supplementary Material (S10).

rat TRPA1 [2] = molecular target: T1, rat TRPA1; assay: rat TRPA1-mediated elevation of intracellular Ca2+ (Fluo-4) in transfected HEK-293 cells, agonist mode; assay type: cell-based; conditions: for EC50: Potency EC50, TRPA1, concentration producing half-maximal increase in [Ca2+]i; for EC50 / Efficacy (%AITC 100μM): rTRPA1-HEK-293 cells; for Efficacy (%AITC 100μM): TRPA1, percentage of the effect on [Ca2+]i observed with 100 μM allylisothiocyanate (AITC); for activity on TRPA1 channel (result in words): in vitro assays on TRPA1
Method: as §1

[3] = tested on: not-transfected HEK cells; assay: Intracellular Ca2+ elevation in not-transfected HEK-293 cells; assay type: cell-based, human; conditions: compound at 100 μM
Method: Compound effects on intracellular Ca^2+ concentration ([Ca^2+]i) were determined using the selective intracellular fluorescent probe Fluo-4. Assays of the rat TRPA1-mediated elevation of intracellular Ca^2+ in transfected HEK-293 cells were performed as described. Briefly, human embryonic kidney (HEK-293) cells (stably transfected with rat TRPA1 or not transfected) were cultured in EMEM + 2 mM Glutamine + 1 % non-essential amino acids (NEAA) + 10 % FBS and maintained at 37 °C with 5 % CO2. On the day of the experiment, the cells were loaded with Fluo-4 AM (4 μM) for 1 h at room temperature, rinsed and resuspended in Tyrode’s solution (145 mM NaCl, 2.5 mM KCl, 1.5 mM CaCl2, 1.2 mM MgCl2, 10 mM d-glucose, and 10 mM HEPES, pH 7.4), and finally transferred to a quartz cuvette of a spectrofluorimeter (Perkin-Elmer LS50B, Perkin Elmer Inc, Buckinghamshire, UK); λEX = 488 nm, λEM = 516 nm) equipped with a PTP-1 Fluorescence Peltier System (PerkinElmer Life and Analytical Sciences, Waltham, MA, USA) under continuous stirring. Cell fluorescence before and after the addition of various concentrations of test compounds was measured, normalizing the effects against the response to ionomycin (4 µM). […] Agonist efficacy was expressed as a percentage of the effect on [Ca^2+]i observed with 100 μM allylisothiocyanate (AITC). […]

T1 sequence (Q6RI86 whole entry): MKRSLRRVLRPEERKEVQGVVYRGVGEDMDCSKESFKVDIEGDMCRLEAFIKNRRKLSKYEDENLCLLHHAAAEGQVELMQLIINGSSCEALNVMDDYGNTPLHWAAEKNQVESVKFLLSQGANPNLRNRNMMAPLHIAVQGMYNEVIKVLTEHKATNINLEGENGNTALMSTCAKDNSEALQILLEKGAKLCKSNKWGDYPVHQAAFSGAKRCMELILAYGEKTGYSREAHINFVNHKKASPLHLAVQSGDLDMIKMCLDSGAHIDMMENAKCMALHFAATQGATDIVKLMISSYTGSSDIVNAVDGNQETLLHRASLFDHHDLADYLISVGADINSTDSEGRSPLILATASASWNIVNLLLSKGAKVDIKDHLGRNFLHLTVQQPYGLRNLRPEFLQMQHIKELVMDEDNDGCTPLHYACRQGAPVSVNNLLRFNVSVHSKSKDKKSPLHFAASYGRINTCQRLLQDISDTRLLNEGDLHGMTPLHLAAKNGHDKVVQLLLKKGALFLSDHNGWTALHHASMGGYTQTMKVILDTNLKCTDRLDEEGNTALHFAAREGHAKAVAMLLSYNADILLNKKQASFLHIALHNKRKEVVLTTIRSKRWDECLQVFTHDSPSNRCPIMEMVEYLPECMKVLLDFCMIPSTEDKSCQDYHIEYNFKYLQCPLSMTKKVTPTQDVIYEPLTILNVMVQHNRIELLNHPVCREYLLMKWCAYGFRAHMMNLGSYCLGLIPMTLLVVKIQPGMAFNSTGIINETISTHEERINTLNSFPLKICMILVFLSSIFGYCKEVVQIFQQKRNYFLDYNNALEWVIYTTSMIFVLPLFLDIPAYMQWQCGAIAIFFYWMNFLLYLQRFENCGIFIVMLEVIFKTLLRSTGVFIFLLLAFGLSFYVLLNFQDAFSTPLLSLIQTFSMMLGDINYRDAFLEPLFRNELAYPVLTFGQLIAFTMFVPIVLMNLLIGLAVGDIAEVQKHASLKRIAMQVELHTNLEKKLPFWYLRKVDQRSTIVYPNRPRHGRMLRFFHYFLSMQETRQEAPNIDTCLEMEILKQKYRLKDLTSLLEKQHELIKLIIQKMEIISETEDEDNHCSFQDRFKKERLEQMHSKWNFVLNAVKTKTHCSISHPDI

activity on TRPA1 channel (result in words) (rat TRPA1 [2]; listed as glucoputranjivin)	SMILES	IC50 (rat TRPA1 [1]) [µM]	EC50 (rat TRPA1 [2]) [µM]	Efficacy (%AITC 100μM) (rat TRPA1 [2])	activity (elevation of internal Ca2+) on not-transfected HEK cells [3]	IC50 (rat TRPA1 [1]; compound added 5 min before stimulation with AITC 100 μM, rTRPA1-HEK-293 cells, read-out: IC50 Inhibition TRPA1 (AITC 100μM)) [µM]	activity on TRPA1 channel (result in words) (rat TRPA1 [2])	activity on TRPA1 channel (result in words) (rat TRPA1 [2]; listed as sinigrin)
	CCC(C)N=C=S (stereo not shown) [Compound 4, 2-butylisothiocyanate]	12.1 ± 0.2	4.9 ± 0.2	98.0% and 98.0 ± 1.0%	less than 1%			
inactive	CC(C)/C(=N/OS(=O)(=O)O)S[C@@H]1O[C@H](CO)[C@@H](O)[C@H](O)[C@H]1O [Compound 1, glucoputranjivin]			<10%		> 100	ineffective	
	C=CCC(=NOS(=O)(=O)O)S[C@@H]1O[C@H](CO)[C@@H](O)[C@H](O)[C@H]1O (stereo in doubt) [Compound 5, sinigrin, reference compound]	> 100		<10%			ineffective	inactive
	CC(C)N=C=S [Compound 2, isopropylisothiocyanate]	10.8 ± 0.4	5.9 ± 0.4	108.8% and 108.8 ± 1.6%	less than 1%			
